Test results taken from patent US20090239841A1, “Diaryl Ureas as CB1 Antagonists” (priority 2004, published 2009).

Molecular target: T1, hCB1 (Homo sapiens, UniProt P21554)
T1 construct: made in house; host or cells: Sf9 insect cells (baculovirus), P2 membranes
Experiment: Agonist-induced GTP binding (GTPγ35S) assay at CB1, Example 8
Type: biochemical
Details: IC50 at CB1, determined as described in Example 8; read-out: IC50
In short: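 Antagonism read as inhibition of 1 nM CP55,940-stimulated GTPγ35S ([…]) binding, compounds at 10^−10 to 10^−5 M. Baculovirus-infected Sf9 membranes bearing hCB1 plus G-protein subunits, 60 min room-temperature incubation with 5 μM GDP. Filtration and scintillation counting; data as percent over basal.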

T1 sequence (P21554 whole entry): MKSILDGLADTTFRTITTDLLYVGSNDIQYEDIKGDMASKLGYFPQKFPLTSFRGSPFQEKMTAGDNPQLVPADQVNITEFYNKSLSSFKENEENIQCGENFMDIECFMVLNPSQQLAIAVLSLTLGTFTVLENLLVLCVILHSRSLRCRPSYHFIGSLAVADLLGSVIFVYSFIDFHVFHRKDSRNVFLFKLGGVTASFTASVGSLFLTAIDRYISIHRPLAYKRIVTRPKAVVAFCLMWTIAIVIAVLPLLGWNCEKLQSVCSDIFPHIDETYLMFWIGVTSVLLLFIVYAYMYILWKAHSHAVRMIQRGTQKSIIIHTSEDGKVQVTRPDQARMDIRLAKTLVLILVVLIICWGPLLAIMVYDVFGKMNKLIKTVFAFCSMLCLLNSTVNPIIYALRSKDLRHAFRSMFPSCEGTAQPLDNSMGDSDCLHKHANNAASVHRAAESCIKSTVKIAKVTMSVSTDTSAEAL

Row | SMILES | IC50
1 | CCOC(=O)c1cccc(NC(=O)Nc2ccc(S(C)(=O)=O)cc2)c1 [Compound 723, ethyl 3-[({[4-(methylsulfonyl)phenyl]amino}carbonyl)amino] benzoate] | < 2 µM
2 | COC(=O)c1ccc(NC(=O)Nc2ccc(C(=O)OC(C)C)cc2)cc1 [Compound 724, isopropyl methyl 4,4′-(carbonyldiimino)dibenzoate] | < 2 µM
3 | CCOC(=O)c1cccc(NC(=O)Nc2ccc(C(=O)OC(C)C)cc2)c1 [Compound 725, ethyl 3-[({[4-(isopropoxycarbonyl)phenyl]amino}carbonyl)amino] benzoate] | < 2 µM
4 | Cc1ccc(NC(=O)Nc2ccc(CC#N)cc2)cc1C [Compound 726, 1-[4-(cyanomethyl)phenyl]-3-(3,4-dimethylphenyl)urea] | < 2 µM
5 | Cc1ccc(NC(=O)Nc2ccc(CC#N)cc2)cc1F [Compound 727, 1-[4-(cyanomethyl)phenyl]-3-(3-fluoro-4-methylphenyl)urea] | < 2 µM
6 | N#CCc1ccc(NC(=O)Nc2ccc(F)c(F)c2)cc1 [Compound 728, 1-[4-(cyanomethyl)phenyl]-3-(3,4-difluorophenyl)urea] | < 2 µM
7 | Cc1ccc(NC(=O)Nc2ccc(OCC#N)cc2)cc1C [Compound 729, 1-[4-(cyanomethoxy)phenyl]-3-(3,4-dimethylphenyl)urea] | < 2 µM
8 | Cc1ccc(NC(=O)Nc2ccc(OCC#N)cc2)cc1F [Compound 730, 1-[4-(cyanomethoxy)phenyl]-3-(3-fluoro-4-methylphenyl)urea] | < 2 µM
9 | Cc1cc(NC(=O)Nc2ccc(OCC#N)cc2)ccc1F [Compound 731, 1-[4-(cyanomethoxy)phenyl]-3-(4-fluoro-3-methylphenyl)urea] | < 2 µM
10 | N#CCOc1ccc(NC(=O)Nc2ccc(F)c(F)c2)cc1 [Compound 732, 1-[4-(cyanomethoxy)phenyl]-3-(3,4-difluorophenyl)urea] | < 2 µM
11 | CCC(=O)c1ccc(NC(=O)Nc2ccc(C)c(C)c2)cc1 [Compound 733, 1-(3,4-dimethylphenyl)-3-(4-propionylphenyl)urea] | < 2 µM
12 | CCC(=O)c1ccc(NC(=O)Nc2ccc(C)c(F)c2)cc1 [Compound 734, 1-(3-fluoro-4-methylphenyl)-3-(4-propionylphenyl)urea] | < 2 µM
13 | CCC(=O)c1ccc(NC(=O)Nc2ccc(F)c(C)c2)cc1 [Compound 735, 1-(4-fluoro-3-methylphenyl)-3-(4-propionylphenyl)urea] | < 2 µM
14 | CCOC(=O)c1ccc(NC(=O)Nc2ccc(C)c(F)c2)cc1 [Compound 737, ethyl 4-({[(3-fluoro-4-methylphenyl)amino]carbonyl}amino)benzoate] | < 2 µM
15 | CCOC(=O)c1ccc(NC(=O)Nc2ccc(F)c(C)c2)cc1 [Compound 738, ethyl 4-({[(4-fluoro-3-methylphenyl)amino]carbonyl}amino)benzoate] | < 2 µM
16 | CCOC(=O)c1ccc(NC(=O)Nc2ccc(F)c(F)c2)cc1 [Compound 739, ethyl 4-({[(3,4-difluorophenyl)amino]carbonyl}amino)benzoate] | < 2 µM
17 | Cc1ccc(NC(=O)Nc2ccc(C(=O)OC(C)C)cc2)cc1F [Compound 740, isopropyl 4-({[(3-fluoro-4-methylphenyl)amino]carbonyl}amino)benzoate] | < 2 µM

Row | SMILES | IC50
18 | N#CCOc1ccc(NC(=O)Nc2cc(F)cc(F)c2)cc1 [Compound 743, 1-[4-(cyanomethoxy)phenyl]-3-(3,5-difluorophenyl)urea] | < 2 µM
19 | CCC(=O)c1ccc(NC(=O)Nc2cc(F)cc(F)c2)cc1 [Compound 744, 1-(3,5-difluorophenyl)-3-(4-propionylphenyl)urea] | < 2 µM
20 | COC(=O)c1ccc(NC(=O)Nc2cccc(O)c2)cc1 [Compound 745, methyl 4-({[(3-hydroxyphenyl)amino]carbonyl}amino)benzoate] | < 2 µM
21 | CCOC(=O)c1ccc(NC(=O)Nc2cccc(O)c2)cc1 [Compound 746, ethyl 4-({[(3-hydroxyphenyl)amino]carbonyl}amino)benzoate] | < 2 µM
22 | COC(=O)c1ccc(NC(=O)Nc2ccc(O)cc2)cc1 [Compound 747, methyl 4-({[(4-hydroxyphenyl)amino]carbonyl}amino)benzoate] | < 2 µM
23 | CCOC(=O)c1ccc(NC(=O)Nc2ccc(O)cc2)cc1 [Compound 748, ethyl 4-({[(4-hydroxyphenyl)amino]carbonyl}amino)benzoate] | < 2 µM
24 | CCOC(=O)c1ccc(NC(=O)Nc2ccc(CO)cc2)cc1 [Compound 749, ethyl 4-[({[4-(hydroxymethyl)phenyl]amino}carbonyl)amino] benzoate] | < 2 µM
25 | CCOC(=O)c1ccc(NC(=O)Nc2ccc(C(C)O)cc2)cc1 (stereo not drawn) [Compound 750, ethyl 4-[({[4-(1-hydroxyethyl)phenyl]amino}carbonyl)amino] benzoate] | < 2 µM
26 | CCOC(=O)c1ccc(NC(=O)Nc2cccc(CCO)c2)cc1 [Compound 751, ethyl 4-[({[3-(2-hydroxyethyl)phenyl]amino}carbonyl)amino] benzoate] | < 2 µM
27 | COC(=O)c1ccc(NC(=O)Nc2ccc(CCO)cc2)cc1 [Compound 752, methyl 4-[({[4-(2-hydroxyethyl)phenyl]amino}carbonyl)amino] benzoate] | < 2 µM
28 | CCOC(=O)c1cccc(NC(=O)Nc2ccc(CCO)cc2)c1 [Compound 753, ethyl 3-[({[4-(2-hydroxyethyl)phenyl]amino}carbonyl)amino] benzoate] | < 2 µM
29 | CCOC(=O)c1ccc(NC(=O)Nc2ccc(CCO)cc2)cc1 [Compound 754, ethyl 4-[({[4-(2-hydroxyethyl)phenyl]amino}carbonyl)amino] benzoate] | < 2 µM
30 | COC(=O)c1ccc(NC(=O)Nc2cccc(OCCO)c2)cc1 [Compound 755, methyl 4-[({[3-(2-hydroxyethoxy)phenyl]amino}carbonyl)amino] benzoate] | < 2 µM
31 | CCOC(=O)c1cccc(NC(=O)Nc2cccc(OCCO)c2)c1 [Compound 756, ethyl 3-[({[3-(2-hydroxyethoxy)phenyl]amino}carbonyl)amino] benzoate] | < 2 µM
32 | CCOC(=O)c1ccc(NC(=O)Nc2cccc(OCCO)c2)cc1 [Compound 757, ethyl 4-[({[3-(2-hydroxyethoxy)phenyl]amino}carbonyl)amino] benzoate] | < 2 µM
33 | CCOC(=O)c1ccc(NC(=O)Nc2ccc(OCC(C)O)cc2)cc1 (stereo not drawn) [Compound 758, ethyl 4-[({[4-(2-hydroxypropoxy)phenyl]amino}carbonyl)amino] benzoate] | < 2 µM
34 | Cc1ccc(NC(=O)Nc2cccc(O)c2)cc1F [Compound 759, 1-(3-fluoro-4-methylphenyl)-3-(3-hydroxyphenyl)urea] | < 2 µM

Results, then the molecule that gave them:

Row | IC50 | SMILES
35 | < 2 µM | Cc1ccc(NC(=O)Nc2ccc(O)cc2)cc1F [Compound 760, 1-(3-fluoro-4-methylphenyl)-3-(4-hydroxyphenyl)urea]
36 | < 2 µM | Cc1ccc(NC(=O)Nc2ccc(CCO)cc2)cc1C [Compound 761, 1-(3,4-dimethylphenyl)-3-[4-(2-hydroxyethyl)phenyl]urea]
37 | < 2 µM | Cc1ccc(NC(=O)Nc2cccc(OCCO)c2)cc1F [Compound 762, 1-(3-fluoro-4-methylphenyl)-3-[3-(2-hydroxyethoxy)phenyl]urea]
38 | < 2 µM | Cc1ccc(NC(=O)Nc2ccc(OCC(C)O)cc2)cc1F (stereo not drawn) [Compound 763, 1-(3-fluoro-4-methylphenyl)-3-[4-(2-hydroxypropoxy)phenyl]urea]
39 | < 2 µM | CCOC(=O)c1ccc(NC(=O)Nc2ccccc2Br)cc1 [Compound 764, ethyl 4-({[(2-bromophenyl)amino]carbonyl}amino)benzoate]
40 | < 2 µM | COC(=O)c1cccc(NC(=O)Nc2ccc(C)c(F)c2)c1 [Compound 765, methyl 3-({[(3-fluoro-4-methylphenyl)amino]carbonyl}amino)benzoate]
41 | < 2 µM | CCOC(=O)c1cccc(NC(=O)Nc2ccc(C)c(F)c2)c1 [Compound 766, ethyl 3-({[(3-fluoro-4-methylphenyl)amino]carbonyl}amino)benzoate]
42 | < 2 µM | CCOC(=O)c1cccc(NC(=O)Nc2ccc(F)c(C)c2)c1 [Compound 767, ethyl 3-({[(4-fluoro-3-methylphenyl)amino]carbonyl}amino)benzoate]
43 | < 2 µM | CCOC(=O)c1cccc(NC(=O)Nc2ccc(F)c(F)c2)c1 [Compound 768, ethyl 3-({[(3,4-difluorophenyl)amino]carbonyl}amino)benzoate]
44 | < 2 µM | COC(=O)c1cccc(NC(=O)Nc2ccc(C)c(Cl)c2)c1 [Compound 769, methyl 3-({[(3-chloro-4-methylphenyl)amino]carbonyl}amino)benzoate]
45 | < 2 µM | CCOC(=O)c1cccc(NC(=O)Nc2ccc(C)c(Cl)c2)c1 [Compound 770, ethyl 3-({[(3-chloro-4-methylphenyl)amino]carbonyl}amino)benzoate]
46 | < 2 µM | CCOC(=O)c1cccc(NC(=O)Nc2ccc(Cl)c(C)c2)c1 [Compound 771, ethyl 3-({[(4-chloro-3-methylphenyl)amino]carbonyl}amino)benzoate]
47 | < 2 µM | Cc1ccc(NC(=O)Nc2ccc(C)c(F)c2)cc1F [Compound 772, 1,3-bis(3-fluoro-4-methylphenyl)urea]
48 | < 2 µM | Cc1ccc(NC(=O)Nc2ccc(F)c(F)c2)cc1F [Compound 774, 1-(3,4-difluorophenyl)-3-(3-fluoro-4-methylphenyl)urea]
49 | < 2 µM | O=C(Nc1ccc(F)c(F)c1)Nc1ccc2c(c1)CCC2 [Compound 775, 1-(3,4-difluorophenyl)-3-(2,3-dihydro-1H-inden-5-yl)urea]
50 | < 2 µM | Cc1ccc(NC(=O)Nc2ccc(C)c(Cl)c2)cc1F [Compound 776, 1-(3-chloro-4-methylphenyl)-3-(3-fluoro-4-methylphenyl)urea]
51 | < 2 µM | Cc1ccc(NC(=O)Nc2ccc(F)c(F)c2)cc1Cl [Compound 777, 1-(3-chloro-4-methylphenyl)-3-(3,4-difluorophenyl)urea]
